“And” between values parts separate entries of the source, which are not always exact repeats. Identical values can stand only once. “Also recorded” adds a separate entry of the source. Like-named read-outs stand apart in the source and are kept apart here.
What was measured:
[1] = tested on: reserpine site on VMAT2; details: read-out: IC50, inhibition of binding to the reserpine site; cited from earlier work
[2] = tested on: nicotinic receptors in mouse brain; details: in vivo; cited from earlier work
[3] = target: T1, synaptic vesicular monoamine transporter (VMAT2), rat striatal synaptic vesicles (Rattus norvegicus, UniProt Q01827); assay: [3H]DA uptake assay, striatal synaptic vesicles; type: biochemical; details: nicotine
T1 construct: from tissue; host or cells: rat striatum, synaptic vesicles
Procedure: (§1) The homogenate was then centrifuged at 2,000×g for 10 min at 4° C. and the resulting supernatant was centrifuged at 10,000×g for 30 min at 4° C. Synaptosomes (buffy coat) were separated from the underlying mitochondria and cellular debris (reddish pellet) by gentle swirling in 2 mL of 0.32 M sucrose. The enriched synaptosome fraction (2.0 mL) was subjected to osmotic shock by addition of 7 mL distilled H2 0 and was homogenized with 5 up and down strokes of the TEFLON pestle. The osmolarity was restored by the addition of 900 μL of 0.25 M HEPES and 900 μL of 1.0 M neutral potassium-tatrate buffer (pH 7.5) followed by a 20 min centrifugation (20,000×g at 4° C.). The supernatant was then centrifuged for 60 min (55,000×g at 4° C.).
Samples were rapidly filtered through Whatman GF/F filters using the Brandel cell harvester.
(§2) Inhibition of synaptosomal and vesicular [^3 H]DA uptake were analyzed by repeated-measures, one-way ANOVA, and by an iterative nonlinear least-squares curve-fitting program (GraphPAD-PRIZM; GraphPAD, San Diego, Calif.) to obtain IC50 values. Dunnett's post hoc test was used to compare treatment means to a single control mean. Also, Duncan's New Multiple Range Test or Fisher's LSD post hoc analysis were used to compare pairs of treatment means. […]

[4] = tested on: rat striatal slices preloaded with [3H]DA; assay: [3H]DA release assay: drug-evoked [3H]overflow / fractional release from rat striatal slices preloaded with [3H]DA; type: cell-based
Procedure: (§3) Rat striata were rapidly dissected on ice and were sliced using a McIlwain tissue chopper. […] Slices were rinsed with 15 mL fresh buffer and then incubated in fresh buffer containing 0.1 μM [^3 H]DA (6-8 slices/3 mL) for an additional 30 min. Subsequently, slices were rinsed with 15 mL fresh buffer and transferred to a glass superfusion chamber. […] After 60 min of superfusion when basal outflow was stabilized, two 5-min samples (5 mL) were collected to determine basal [^3 H]outflow.
The concentration-response for each drug was determined using a repeated-measures design.
(§4) The pH and volume of the solubilized tissue samples were adjusted to those of the superfusate samples.
(§5) Fractional release for each superfusate sample was calculated by dividing the tritium collected in each sample by the total tritium present in the tissue at the time of sample collection. Fractional release was expressed as a percentage of total tritium in the tissue at the time of sample collection. Basal outflow was calculated from the average of the tritium collected in the two 5-min samples just before the addition of drug.
(§6) Inhibition of synaptosomal and vesicular [^3 H]DA uptake were analyzed by repeated-measures, one-way ANOVA, and by an iterative nonlinear least-squares curve-fitting program (GraphPAD-PRIZM; GraphPAD, San Diego, Calif.) to obtain IC50 values. Dunnett's post hoc test was used to compare treatment means to a single control mean. Also, Duncan's New Multiple Range Test or Fisher's LSD post hoc analysis were used to compare pairs of treatment means. Duncan's New Multiple Range Test was used when significant one-way ANOVA's were obtained or when significant main effects were obtained in the two-way ANOVA's. Fisher's LSD post hoc analysis is a more conservative test, which takes into account error which cumulates during multiple comparisons of pairs of means. Fisher's LSD analysis was used when the interaction term was significant in the two-way ANOVAs, specifically in the post hoc analysis of drug×time interactions. Statistical significance was reached when P<0.05 (two-tailed, unless otherwise indicated).

[5] = tested on: rat striatal slices preloaded with [3H]DA; details: cited from earlier work
[6] = tested on: locomotor activity in rats; details: rat, in vivo; cited from earlier work
[7] = tested on: nicotinic receptors in rat brain; details: in vivo; cited from earlier work
[8] = target: central nicotinic receptors; details: read-out: Kd, binding to nicotinic receptors; cited from earlier work
[9] = tested on: nicotine (10 μM)-evoked [3H]overflow from rat striatal slices; assay: Mecamylamine antagonism of nicotine-evoked [3H]overflow from rat striatal slices; type: cell-based
Procedure: as §3
To determine the ability of mecamylamine to antagonize nicotine-evoked [^3 H]overflow, a repeated-measure design was utilized also. Individual slices were superfused with a single concentration (0.01-100 μM) of mecamylamine for 60 min, followed by 60 min of superfusion with nicotine (10 μM) in the presence of the various mecamylamine concentrations. One slice in each experiment was superfused in the absence of mecamylamine to determine the effect of nicotine alone. A control slice was superfused with buffer alone.
as §4, §5, §6

[10] = target: T2, plasma membrane DA transporter (rat striatal synaptosomes) (Rattus norvegicus, UniProt P23977); assay: [3H]DA uptake assay, striatal synaptosomal preparation; type: biochemical; details: nicotine 0.001 nM-100 μM
T2 construct: from tissue; host or cells: rat striatum, synaptosomes
Procedure: The homogenate was centrifuged at 2,000×g for 10 min at 4° C. […] The final protein concentration was 400 μg/mL. The assay was performed in duplicate in a total volume of 500 μL. […] The incubation continued for 10 min at 34° C. The reaction was terminated by the addition of 3 mL cold assay buffer (without 1 mM catechol). Samples were rapidly filtered through a Whatman GF/B filter using a Brandel cell harvester (model MP-43 RS, Biochemical Research and Development Laboratories, Inc., Gaithersburg, Md.) and the filter was subsequently washed 3 times with 4 mL of cold assay buffer containing 1 mM catechol. Filters were previously soaked for 2 hrs in the cold assay buffer containing 1 mM catechol. […] Filters were placed into scintillation vials, 10 mL of scintillation cocktail was added and radioactivity was determined by scintillation spectrometry.
as §2

[11] = tested on: self-administration by rats; details: rat, in vivo; cited from earlier work
[12] = tested on: conditioned place preference in rats; details: rat, in vivo; cited from earlier work
[13] = target: human VMAT2; details: read-out: Ki, inhibition of monoamine uptake; cited from earlier work
[14] = target: human VMAT2; details: read-out: Ki, inhibition of [3H]DTBZ binding; cited from earlier work
[15] = target: T3, vesicular monoamine transporter-2 (VMAT2), DTBZ/TBZ site, rat striatal vesicle membranes (Rattus norvegicus, UniProt Q01827); assay: [3H]DTBZ binding to rat striatal vesicles; details: 2 nM [3H]DTBZ
T3 construct: from tissue; host or cells: rat striatum, synaptic vesicles

[16] = target: [3H]DTBZ binding site, rat striatal homogenates; details: read-out: Ki, inhibition of [3H]DTBZ binding; cited from earlier work
[17] = tested on: monoamine oxidase; details: cited from earlier work
[18] = tested on: rat striatal synaptic vesicles; assay: [3H]DA release from striatal synaptic vesicles preloaded with [3H]DA; type: biochemical
Procedure: as §1
The final vesicle pellet from a pool of striata from three rats was resuspended in 3 mL of release assay buffer (in mM: 25 HEPES, 100 L-(+)-tartaric acid dipotassium salt, 0.05 EGTA, 0.10 EDTA, 2 Mg^2+ -ATP, and 1.7 ascorbic acid, pH 7.4) and then incubated with [^3 H]DA (0.3 μM) for 8 min at 37° C. […] [^3 H]DA efflux represents the net result of events, i.e., release and reuptake. […] The reaction was terminated by addition of 2.5 mL of ice-cold assay buffer containing 2 mM MgSO4. Samples were rapidly filtered through Whatman GF/F filters using the Brandel cell harvester.
The amount of drug-induced [^3 H]DA release from synaptic vesicles was calculated by subtracting the amount of tritium remaining in the drug-exposed samples from that remaining in the control samples (in the absence of drug). The amount of drug-induced [^3 H]DA release was then divided by the amount of tritium remaining in the control samples and was expressed as a percentage of control.
Concentration-response and kinetic data were analyzed by repeated-measures one-way ANOVA and between-group one-way ANOVA, respectively. When appropriate, Fisher's least significant difference post hoc test was used to determine significant differences between treatment means. IC50 and EC50 values were obtained by an iterative nonlinear least-squarescurve-fitting program (GraphPAD-PRIZM: GraphPAD, San Diego, Calif., U.S.A.) for one-site competition and sigmoidal concentration response, respectively. The t1/2 was obtained by an iterative nonlinear least-squares curve-fitting program for one-phase decay. KD and Bmax values were obtained by Scatchard analysis using an iterative linear least-squares curve-fitting program.

[19] = tested on: rat brain vesicles; details: cited from earlier work
[20] = tested on: VMAT2 knockout mice; details: mouse, in vivo; cited from earlier work

T2 sequence (P23977 whole entry): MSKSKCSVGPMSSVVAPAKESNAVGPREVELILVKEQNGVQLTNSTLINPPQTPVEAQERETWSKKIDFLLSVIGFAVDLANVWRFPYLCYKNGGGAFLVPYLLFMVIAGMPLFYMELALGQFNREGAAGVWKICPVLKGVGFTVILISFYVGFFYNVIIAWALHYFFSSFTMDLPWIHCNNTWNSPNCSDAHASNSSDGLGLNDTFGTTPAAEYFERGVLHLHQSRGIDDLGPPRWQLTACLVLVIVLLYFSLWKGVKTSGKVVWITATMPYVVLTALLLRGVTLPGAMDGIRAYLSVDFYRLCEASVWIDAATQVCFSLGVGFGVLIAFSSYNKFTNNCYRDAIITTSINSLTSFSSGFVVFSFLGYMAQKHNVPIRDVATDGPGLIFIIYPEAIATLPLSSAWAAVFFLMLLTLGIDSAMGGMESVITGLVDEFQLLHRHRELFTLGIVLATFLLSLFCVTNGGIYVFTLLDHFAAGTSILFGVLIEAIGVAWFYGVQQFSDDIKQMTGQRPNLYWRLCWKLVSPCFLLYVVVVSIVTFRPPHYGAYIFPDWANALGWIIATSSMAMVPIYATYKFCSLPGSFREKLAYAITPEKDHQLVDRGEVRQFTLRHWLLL
T1 sequence (Q01827 whole entry): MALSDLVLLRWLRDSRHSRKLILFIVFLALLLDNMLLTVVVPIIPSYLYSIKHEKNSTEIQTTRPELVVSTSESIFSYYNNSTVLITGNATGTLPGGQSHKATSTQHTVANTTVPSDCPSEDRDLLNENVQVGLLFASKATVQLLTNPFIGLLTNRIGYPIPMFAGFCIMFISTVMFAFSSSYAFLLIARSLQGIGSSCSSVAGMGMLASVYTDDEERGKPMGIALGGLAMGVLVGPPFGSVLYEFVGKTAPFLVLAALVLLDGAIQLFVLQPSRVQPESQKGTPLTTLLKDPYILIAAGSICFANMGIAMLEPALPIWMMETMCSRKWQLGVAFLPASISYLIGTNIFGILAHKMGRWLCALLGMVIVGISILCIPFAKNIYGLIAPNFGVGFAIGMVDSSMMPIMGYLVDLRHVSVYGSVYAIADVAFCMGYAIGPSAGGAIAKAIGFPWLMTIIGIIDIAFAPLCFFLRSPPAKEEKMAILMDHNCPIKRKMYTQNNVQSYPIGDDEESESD
T3 sequence (Q01827 whole entry): as above

For `CN[C@@H](C)Cc1ccccc1` [Methamphetamine], the IC50 [1] is listed as 0.4 µM.
In the case of `CN1CCC[C@H]1c1cccnc1` [Nicotine], the “number of nicotinic receptors after chronic treatment” value [2] is listed as “increase in the number of nicotinic receptors”, the “concentration giving significant inhibition of vesicular [3H]DA uptake” value [3] is listed as 1 mM and ~ 1 mM and the minimal effective concentration ([4]; Rattus norvegicus, read-out: lowest concentration which evoked a significant increase in [3H]overflow) is listed as 0.05 µM. The “time to peak fractional release after addition of drug” value ([4]; nicotine) was 10 to 15 min, the peak fractional release ([4]; nicotine 100 μM) was 2 % of total tritium in the slice and the “mechanism of nicotine-evoked DA release” value [5] was “calcium-dependent, mecamylamine-sensitive and mediated by nicotinic receptors”. For the same compound, the locomotor activity [6] was “increase locomotor activity”, the “number of nicotinic receptors after chronic treatment” value [7] was “increase in the number of nicotinic receptors” and the Kd [8] was 0.001 to 0.007 µM. For the same compound, the “total [3H]overflow” value ([9]; mecamylamine 0 μM (control)) was 5.60 ± 1.20, the “inhibition of [3H]DA uptake into striatal synaptosomes” value [10] was “did not inhibit; also recorded: no inhibition of synaptosomal [^3 H]DA uptake was observed; also recorded: no effect was observed” and the self-administration [11] was “avidly self-administered by rats”. For the same compound, the conditioned place preference [12] was “produce conditioned place preference”.
For `C[C@H](N)Cc1ccccc1` [d-Amphetamine], the Ki [13] is given as roughly 2 µM, the Ki [14] is given as 300 µM and the “lowest concentration to significantly inhibit [3H]DTBZ binding” value [15] is given as 10 µM. The Ki [16] was greater than 20 µM, the “inhibition of monoamine oxidase” value [17] was “inhibits monoamine oxidase” and the “potency in releasing DA from synaptic vesicles vs lobeline” value [18] was 10 fold. For the same compound, the “lowest concentration to evoke [3H]DA release from vesicles” value ([18]; 8 min, 37° C.) was 1 µM and the EC50 ([18]; 8 min, 37° C., read-out: EC50, evoked [3H]DA release from synaptic vesicles) was 2.22 ± 0.13 µM.
In the case of `CNC1(C)C2CCC(C2)C1(C)C` (stereo not shown) [Mecamylamine], the inhibition at 0.01 µM ([9]; Rattus norvegicus, mecamylamine 0.01 μM, read-out: inhibition of nicotine's effect (fractional release)) is reported as 36%, the minimal effective concentration ([9]; Rattus norvegicus, read-out: lowest concentration to produce significant inhibition of nicotine's effect (fractional release, collapsed across time)) is reported as 0.01 µM and the “Total [3H]overflow evoked by nicotine” value ([9]; mecamylamine 0.01 μM) is reported as 3.57 ± 1.52. For the same compound, the “Total [3H]overflow evoked by nicotine” value ([9]; mecamylamine 0.1 μM, P<0.05 one-tailed) was 2.40 ± 0.87, the “Total [3H]overflow evoked by nicotine” value ([9]; mecamylamine 1 μM, P<0.05 two-tailed) was 1.59 ± 0.64 and the “Total [3H]overflow evoked by nicotine” value ([9]; mecamylamine 10 μM, P<0.05 two-tailed) was 1.02 ± 0.43. The “Total [3H]overflow evoked by nicotine” value ([9]; mecamylamine 100 μM, P<0.05 two-tailed) was 0.54 ± 0.32.
In the case of `COc1cc2c(cc1OC)C1CC(=O)C(CC(C)C)CN1CC2` (stereo not shown) [Tetrabenazine], the “effect on spontaneous efflux of [3H]DA” value [19] is listed as “does not alter spontaneous efflux”.
For `CC(N)Cc1ccccc1` (stereo not shown) [amphetamine], the “conditioned place preference in VMAT2 knockout vs wild-type mice” value [20] is listed as “diminished amphetamine-induced conditioned place preference”.

From patent US6087376A (priority 1998, dated 2000)
